# Measured values: patent US12534457B2, “Heteroaryl derivative compounds, and uses thereof” (Voronoi Inc., priority 2021, dated 2026)
# Tested on: Ba/F3 cells expressing EGFR Del19/C797S (EGFR DC)
# Experiment: Proliferation inhibitory activity, Ba/F3 cells expressing EGFR Del19/C797S (CellTiter-Glo)
# Type: cell-based
# Conditions: 72 hours of compound treatment
# Outline: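 Viability after 72 h of compound exposure was measured by luminescence (CellTiter-Glo) in Ba/F3 lines transduced with mutant EGFR. Final concentrations spanned 0.2 nM–5 μM over 12 threefold steps. Growth relative to untreated control gave GI50 values; each test was run three times.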
row,Compound,GI50 [nM]
1,COc1cc(N2CCC(N3CCCN(C)CC3)CC2)ccc1Nc1cc(N2OCC[C@@H]2c2cccc(F)c2F)ncn1 [Example 221],< 50

# Same assay, conditions: Mus musculus, BaF3, 72 hours of compound treatment
row,Compound,GI50 [nM]
1,"CN1CCN(c2ccc(Nc3cc(N4OCC[C@@H]4c4ccccc4)ncn3)cc2)CC1 [Example 1, (R)—N-(4-(4-methylpiperazin-1-yl)phenyl)-6-(3-phenylisoxazolidin-2-yl)pyrimidin-4-amine]",< 50
2,"COc1cc(N2CCC(N3CCN(C)CC3)CC2)ccc1Nc1cc(N2OCC[C@@H]2c2ccccc2)ncn1 [Example 5, (R)—N-(2-methoxy-4-(4-(4-methylpiperazin-1-yl)piperidin-1-yl)phenyl)-6-(3-phenylisoxazolidin-2-yl)pyrimidin-4-amine]",< 50
3,"COc1cc(N2CCC(N3CCN(C4CC4)CC3)CC2)ccc1Nc1cc(N2OCC[C@@H]2c2cc(F)cc(F)c2)ncn1 [Example 6, (R)—N-(4-(4-(4-cyclopropylpiperazin-1-yl)piperidin-1-yl)-2-methoxyphenyl)-6-(3-(3,5-difluorophenyl)isoxazolidin-2-yl)pyrimidin-4-amine]",50 to 500
4,"COc1cc(N2CCOCC2)c(-c2cnn(C)c2)cc1Nc1cc(N2OCC[C@@H]2c2cc(F)cc(F)c2)ncn1 [Example 7, (R)-6-(3-(3,5-difluorophenyl)isoxazolidin-2-yl)-N-(2-methoxy-5-(1-methyl-1H-pyrazol-4-yl)-4-morpholinophenyl)pyrimidin-4-amine]",50 to 500
5,"COc1cc(N2CCC(N3CCN(C)[C@@H](C)C3)CC2)ccc1Nc1cc(N2OCC[C@@H]2c2cccc(F)c2F)ncn1 [Example 214, 6-((R)-3-(2,3-difluorophenyl)isoxazolidin-2-yl)-N-(4-(4-((S)-3,4-dimethylpiperazin-1-yl)piperidin-1-yl)-2-methoxyphenyl)pyrimidin-4-amine]",< 50
6,"CCN1[C@H](C)CN(C2CCN(c3ccc(Nc4cc(N5OCC[C@@H]5c5cccc(F)c5F)ncn4)c(OC)c3)CC2)C[C@@H]1C [Example 215, 6-((R)-3-(2,3-difluorophenyl)isoxazolidin-2-yl)-N-(4-(4-((3S,5R)-4-ethyl-3,5-dimethylpiperazin-1-yl)piperidin-1-yl)-2-methoxyphenyl)pyrimidin-4-amine]",< 50
7,"COc1cc(N2CCC(N3CCN(C)C[C@@H]3C)CC2)ccc1Nc1cc(N2OCC[C@@H]2c2cccc(F)c2F)ncn1 [Example 216, 6-((R)-3-(2,3-difluorophenyl)isoxazolidin-2-yl)-N-(4-(4-((S)-2,4-dimethylpiperazin-1-yl)piperidin-1-yl)-2-methoxyphenyl)pyrimidin-4-amine]",< 50
8,"COc1cc(N2CCC(N3CCN(C)C[C@H]3C)CC2)ccc1Nc1cc(N2OCC[C@@H]2c2cccc(F)c2F)ncn1 [Example 217, 6-((R)-3-(2,3-difluorophenyl)isoxazolidin-2-yl)-N-(4-(4-((R)-2,4-dimethylpiperazin-1-yl)piperidin-1-yl)-2-methoxyphenyl)pyrimidin-4-amine]",< 50
9,"COc1cc(N2CC(N3CCN(C)CC3)C2)ccc1Nc1cc(N2OCC[C@@H]2c2cccc(F)c2F)ncn1 [Example 218, (R)-6-(3-(2,3-difluorophenyl)isoxazolidin-2-yl)-N-(2-methoxy-4-(3-(4-methylpiperazin-1-yl)azetidin-1-yl)phenyl)pyrimidin-4-amine]",< 50
10,"CCN1C2CC1CN(C1CCN(c3ccc(Nc4cc(N5OCC[C@@H]5c5cccc(F)c5F)ncn4)c(OC)c3)CC1)C2 [Example 219, 6-((R)-3-(2,3-difluorophenyl)isoxazolidin-2-yl)-N-(4-(4-(6-ethyl-3,6-diazabicyclo[3.1.1]heptan-3-yl)piperidin-1-yl)-2-methoxyphenyl)pyrimidin-4-amine]",< 50
11,"CCN1CC2CC(C1)N2C1CCN(c2ccc(Nc3cc(N4OCC[C@@H]4c4cccc(F)c4F)ncn3)c(OC)c2)CC1 [Example 220, 6-((R)-3-(2,3-difluorophenyl)isoxazolidin-2-yl)-N-(4-(4-(3-ethyl-3,6-diazabicyclo[3.1.1]heptan-6-yl)piperidin-1-yl)-2-methoxyphenyl)pyrimidin-4-amine]",< 50
12,"COc1cc(N2CCC(N3CCN(C(C)C)CC3)CC2)ccc1Nc1cc(N2OCC[C@@H]2c2cccc(F)c2F)ncn1 [Example 222, (R)-6-(3-(2,3-difluorophenyl)isoxazolidin-2-yl)-N-(4-(4-(4-isopropylpiperazin-1-yl)piperidin-1-yl)-2-methoxyphenyl)pyrimidin-4-amine]",< 50
13,"COc1cc(N2CCC(N3CCN(C)C(=O)C3)CC2)ccc1Nc1cc(N2OCC[C@@H]2c2cccc(F)c2F)ncn1 [Example 224, (R)-4-(1-(4-((6-(3-(2,3-difluorophenyl)isoxazolidin-2-yl)pyrimidin-4-yl)amino)-3-methoxyphenyl)piperidin-4-yl)-1-methylpiperazin-2-one]",< 50
14,"CN1CCN(c2ccc(Nc3cc(N4Oc5ccccc5C4c4ccccc4)ncn3)cc2)CC1 (centres unmarked) [Example 229, N-(4-(4-methylpiperazin-1-yl)phenyl)-6-(3-phenylbenzo[d]isoxazol-2(3H)-yl)pyrimidin-4-amine]",50 to 500
15,"COc1cc(N2CCC(N3CCN(C)CC3)CC2)ccc1Nc1cc(N2Oc3ccccc3C2c2ccccc2)ncn1 (centres unmarked) [Example 230, N-(2-methoxy-4-(4-(4-methylpiperazin-1-yl)piperidin-1-yl)phenyl)-6-(3-phenylbenzo[d]isoxazol-2 (3H)-yl)pyrimidin-4-amine]",50 to 500
16,"CN1CCN(c2ccc(Nc3cc(N4OCC5(CC5)[C@@H]4c4ccccc4)ncn3)cc2)CC1 [Example 231, (S)—N-(4-(4-methylpiperazin-1-yl)phenyl)-6-(7-phenyl-5-oxa-6-azaspiro[2.4]heptan-6-yl)pyrimidin-4-amine]",50 to 500
17,"COc1cc(N2CCC(N3CCN(C)CC3)CC2)ccc1Nc1cc(N2OCC3(CC3)[C@@H]2c2ccccc2)ncn1 [Example 233, (S)—N-(2-methoxy-4-(4-(4-methylpiperazin-1-yl)piperidin-1-yl)phenyl)-6-(7-phenyl-5-oxa-6-azaspiro[2.4]heptan-6-yl)pyrimidin-4-amine]",< 50
18,"COc1cc(N2CCC(N3CCN(C)CC3)CC2)ccc1Nc1cc(N2OCC3(CC3)[C@H]2c2ccccc2)ncn1 [Example 234, (R)—N-(2-methoxy-4-(4-(4-methylpiperazin-1-yl)piperidin-1-yl)phenyl)-6-(7-phenyl-5-oxa-6-azaspiro[2.4]heptan-6-yl)pyrimidin-4-amine]",50 to 500
19,"CC(C)[C@H]1CCON1c1cc(Nc2ccc(N3CCN(C)CC3)cc2)ncn1 [Example 235, (R)-6-(3-isopropylisoxazolidin-2-yl)-N-(4-(4-methylpiperazin-1-yl)phenyl)pyrimidin-4-amine]",< 50
20,"COc1cc(N2CCC(N3CCN(CCS(C)(=O)=O)CC3)CC2)ccc1Nc1cc(N2OCC[C@@H]2c2cccc(F)c2F)ncn1 [Example 237, (R)-6-(3-(2,3-difluorophenyl)isoxazolidin-2-yl)-N-(2-methoxy-4-(4-(4-(2-(methylsulfonyl)ethyl)piperazin-1-yl)piperidin-1-yl)phenyl)pyrimidin-4-amine]",< 50
21,"CN(C)C1CCN(c2ccc(Nc3cc(N4OCC[C@@H]4c4ccccc4)ncn3)nc2)CC1 [Example Compound 138, (R)-N-(5-(4-(dimethylamino)piperidin-1-yl)pyridin-2-yl)-6-(3-phenylisoxazolidin-2-yl)pyrimidin-4-amine]",< 50

# Tested on: Ba/F3 cells expressing EGFR L858R/C797S (EGFR LC)
# Experiment: Proliferation inhibitory activity, Ba/F3 cells expressing EGFR L858R/C797S (CellTiter-Glo)
# Type: cell-based
# Conditions: Mus musculus, BaF3, 72 hours of compound treatment
# Method: The following experiments were performed to evaluate the inhibitory activity of the compounds according to the present disclosure on Ba/F3 proliferation expressing EGFR C797S, L861Q, G719A, S768I, L718Q, and/or G724S mutations.
# For Ba/F3 cells, RPMI-1640 containing 10% FBS and 5 ng/ml IL-3 (R&D Systems) was used. Transduced Ba/F3 cells were cultured after adding 1 μg/ml puromycin (Invitrogen) to the same medium.
# At 24 hours before treatment with the compounds, 3000 to 5000 cells were aliquoted into each well of a white clear bottom 96 well plate (Corning). The compounds were diluted in dimethyl sulfoxide (3 times dilution, 12 concentrations in total), and injected in an amount of 1 μl so that the final concentration was 0.2 nM to 5 uM. For measurement of living cells, after 72 hours of compound treatment, the cells were stored at room temperature for 10 min using CellTiter-Glo luminescentcell-viability reagent (Promega), and then luminescence intensity was measured using a reader (SynergyNeo, Biotek). Each test was repeated three times. Result values were calculated as the cell growth rate (%) compared to the control. The graphs were created using GraphPad Prism version 8.3.0 program and the GI50 values were calculated.
row,Compound,GI50 [nM]
1,"CN1CCN(c2ccc(Nc3cc(N4OCC[C@@H]4c4ccccc4)ncn3)cc2)CC1 [Example 1, (R)—N-(4-(4-methylpiperazin-1-yl)phenyl)-6-(3-phenylisoxazolidin-2-yl)pyrimidin-4-amine]",< 50
2,"COc1cc(N2CCC(N3CCN(C)CC3)CC2)ccc1Nc1cc(N2OCC[C@@H]2c2ccccc2)ncn1 [Example 5, (R)—N-(2-methoxy-4-(4-(4-methylpiperazin-1-yl)piperidin-1-yl)phenyl)-6-(3-phenylisoxazolidin-2-yl)pyrimidin-4-amine]",< 50
3,"COc1cc(N2CCC(N3CCN(C4CC4)CC3)CC2)ccc1Nc1cc(N2OCC[C@@H]2c2cc(F)cc(F)c2)ncn1 [Example 6, (R)—N-(4-(4-(4-cyclopropylpiperazin-1-yl)piperidin-1-yl)-2-methoxyphenyl)-6-(3-(3,5-difluorophenyl)isoxazolidin-2-yl)pyrimidin-4-amine]",50 to 500
4,"COc1cc(N2CCOCC2)c(-c2cnn(C)c2)cc1Nc1cc(N2OCC[C@@H]2c2cc(F)cc(F)c2)ncn1 [Example 7, (R)-6-(3-(3,5-difluorophenyl)isoxazolidin-2-yl)-N-(2-methoxy-5-(1-methyl-1H-pyrazol-4-yl)-4-morpholinophenyl)pyrimidin-4-amine]",50 to 500
